This passage reports GI50 results from ChEMBL document CHEMBL1146044, “Synthesis, enzymatic inhibition, and cancer cell growth inhibition of novel delta-lactam-based histone deacetylase (HDAC) inhibitors” (Bioorg Med Chem Lett, 2006).

The structures appear in SMILES notation. Calls of active or inactive are those of the source. The rule behind the calls is not given here.

What all share (format): functional
One assay deals with NCI-H23. Nature of the assay: Antiproliferative activity against human NCI-H23 cells by SRB assay.
The subject of a further assay is PC-3. Kind of assay: Antiproliferative activity against human PC3 cells by SRB assay. On the technique in general: Sulforhodamine B stains cellular protein and so reports cell mass.
In the next assay the test system is HCT-15. Kind of assay: Antiproliferative activity against human HCT15 cells by SRB assay.
A further assay deals with LOX IMVI. Kind of assay: Antiproliferative activity against human LOX-IMVI cells by SRB assay.
Another assay concerns ACHN. Nature of the assay: Antiproliferative activity against human ACHN cells by SRB assay.
In a further assay the test system is MDA-MB-231. Kind of assay: Antiproliferative activity against human MDA-MB-231 cells by SRB assay.

In the case of `O=C(CCC1=CCCN(CCc2ccccc2)C1=O)NO`, the GI50 (usually the concentration that inhibits growth by half) in the assay on NCI-H23 is over 10 µM.

As to `C=CCN1CCC=C(CCC(=O)NO)C1=O`, the GI50 entry in the assay on PC-3 was “inactive”.

On to `O=C(CCC1=CCCN(Cc2ccccc2)C1=O)NO`, for which the GI50 in the assay with PC-3 is over 10 µM; in the assay with HCT-15 (Homo sapiens, HCT-15), over 10 µM; in the assay with NCI-H23, over 10 µM; in the assay with LOX IMVI, over 10 µM; in the assay with ACHN, over 10 µM.

As for `O=C(CCCCCCC(=O)Nc1ccccc1)NO` [VORINOSTAT], the GI50 is 0.66 µM in the assay on MDA-MB-231 and 0.82 µM in the assay with HCT-15.

In the assay with NCI-H23, `COc1ccc(CN2CCC=C(CCC(=O)NO)C2=O)c(OC)c1` returned a GI50 of over 10 µM.
